Assay [1] concerns the target Sodium-dependent noradrenaline transporter (Homo sapiens, UniProt P23975). In words: DRUGMATRIX: Norepinephrine Transporter radioligand binding (ligand: [125I] RTI-55). The assay is classed as cell membranes, MDCK, Membrane. To be noted: mdck; Not Active = under 50% inhibition at 10 µM.
Assay [2] deals with Sigma non-opioid intracellular receptor 1 (Homo sapiens, UniProt Q99720). In words: DRUGMATRIX: Sigma1 radioligand binding (ligand: [3H] Haloperidol). Particulars: Not Active = under 50% inhibition at 10 µM; for IC50: jurkat. The class given is cell membranes, Jurkat, Membrane.
Sigma non-opioid intracellular receptor 1, sequence (Q99720 whole entry): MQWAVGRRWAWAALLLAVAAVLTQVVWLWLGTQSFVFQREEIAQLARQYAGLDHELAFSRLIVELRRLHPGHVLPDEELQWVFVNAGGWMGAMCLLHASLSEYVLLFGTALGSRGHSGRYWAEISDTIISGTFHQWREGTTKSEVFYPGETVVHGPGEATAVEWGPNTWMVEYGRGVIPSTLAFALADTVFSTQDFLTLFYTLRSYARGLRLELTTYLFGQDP
In assay [3] the target is T1, C-X-C chemokine receptor type 1 (Homo sapiens, UniProt P25024). Also: in other assays of this panel Not Active means under 50% inhibition at 10 µM.
T1 sequence (P25024 whole entry): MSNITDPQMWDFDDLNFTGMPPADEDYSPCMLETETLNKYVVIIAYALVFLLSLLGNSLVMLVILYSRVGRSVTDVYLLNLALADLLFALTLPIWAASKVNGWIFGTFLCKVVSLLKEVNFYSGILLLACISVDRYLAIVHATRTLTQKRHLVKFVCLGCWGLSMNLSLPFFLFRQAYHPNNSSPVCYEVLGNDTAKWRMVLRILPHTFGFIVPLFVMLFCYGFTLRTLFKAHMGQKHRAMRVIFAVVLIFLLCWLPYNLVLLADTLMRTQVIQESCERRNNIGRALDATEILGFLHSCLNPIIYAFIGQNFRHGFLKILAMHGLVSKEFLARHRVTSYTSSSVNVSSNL

SMILES strings stand for the structures. pIC50, pKi: −log10 of the molar value.

Sodium-dependent noradrenaline transporter, sequence (P23975 whole entry): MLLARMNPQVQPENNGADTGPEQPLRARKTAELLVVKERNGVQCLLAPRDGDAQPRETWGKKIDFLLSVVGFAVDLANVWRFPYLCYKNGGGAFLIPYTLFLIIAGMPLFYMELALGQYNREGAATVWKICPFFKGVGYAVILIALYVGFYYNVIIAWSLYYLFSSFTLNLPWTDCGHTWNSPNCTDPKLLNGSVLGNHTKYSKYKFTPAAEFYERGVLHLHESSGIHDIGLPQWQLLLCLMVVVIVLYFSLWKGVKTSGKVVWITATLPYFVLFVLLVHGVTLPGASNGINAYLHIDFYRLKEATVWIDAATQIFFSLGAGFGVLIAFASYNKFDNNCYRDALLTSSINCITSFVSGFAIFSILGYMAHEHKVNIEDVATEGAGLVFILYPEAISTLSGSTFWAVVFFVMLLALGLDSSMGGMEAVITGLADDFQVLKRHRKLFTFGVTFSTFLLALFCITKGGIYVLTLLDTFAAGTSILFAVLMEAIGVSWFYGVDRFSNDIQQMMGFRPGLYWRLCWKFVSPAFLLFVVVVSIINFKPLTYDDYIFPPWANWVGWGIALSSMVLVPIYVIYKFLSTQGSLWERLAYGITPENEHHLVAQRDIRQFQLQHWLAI

Regarding `COc1ccccc1N`, the IC50 result in assay [1], in assay [2] and in assay [3] was “Not Active” each time.
On to `C[C@H]1O[C@H](O[C@H]2[C@H](O)[C@@H](O)[C@@H](O[C@H]3[C@H](O)[C@@H](O)C(O)O[C@@H]3CO)O[C@@H]2CO)[C@H](O)[C@@H](O)[C@@H]1N[C@H]1C=C(CO)[C@@H](O)[C@H](O)[C@H]1O` (some centres undefined) [ACARBOSE], for which the IC50 entry in assay [1], in assay [2] and in assay [3] was “Not Active” throughout.
`NC12CC3CC(CC(C3)C1)C2` [AMANTADINE]: the IC50 entry in assay [1], in assay [2] and in assay [3] was “Not Active” in each case.
As for `NCCCNCCSP(=O)(O)O` [AMIFOSTINE], the IC50 result in assay [1], in assay [2] and in assay [3] was “Not Active” each time.
As to `CN(C)CCC=C1c2ccccc2CCc2ccccc21` [AMITRIPTYLINE], the pIC50 in assay [2] (read-out: IC50) is 5.99. Also, the negative logarithm of the Ki (pKi) in assay [2] (read-out: Ki) was 6.36. Also, the IC50 entry in assay [3] is “Not Active”.
Turning to `CC(C)c1c(C(=O)Nc2ccccc2)c(-c2ccccc2)c(-c2ccc(F)cc2)n1CC[C@@H](O)C[C@@H](O)CC(=O)O` [ATORVASTATIN], the IC50 entry in assay [1], in assay [2] and in assay [3] was “Not Active” in each case.
In the case of `C[C@H]1[C@H](NC(=O)/C(=N\OC(C)(C)C(=O)O)c2csc(N)n2)C(=O)N1S(=O)(=O)O` [AZTREONAM], the IC50 result in assay [1], in assay [2] and in assay [3] was “Not Active” each time.
With `O=C(O)CCNC(=O)c1ccc(/N=N/c2ccc(O)c(C(=O)O)c2)cc1` [BALSALAZIDE], the IC50 result in assay [1], in assay [2] and in assay [3] was “Not Active” in each case.
For `Cn1c(=O)c2c(ncn2C)n(C)c1=O` [CAFFEINE], the IC50 result in assay [1], in assay [2] and in assay [3] was “Not Active” throughout.
`CO/N=C(\C(=O)N[C@@H]1C(=O)N2C(C(=O)O)=C(COC(C)=O)CS[C@H]12)c1csc(N)n1` [CEFOTAXIME]: the IC50 result in assay [1], in assay [2] and in assay [3] was “Not Active” throughout.
In the case of `Cc1cc(O)cc(C)c1Cl` [CHLOROXYLENOL], the IC50 entry in assay [1], in assay [2] and in assay [3] was “Not Active” throughout.
Consider `CCCNC(=O)NS(=O)(=O)c1ccc(Cl)cc1` [CHLORPROPAMIDE], for which the IC50 result in assay [1], in assay [2] and in assay [3] was “Not Active” throughout.
For the compound `NS(=O)(=O)c1cc(C2(O)NC(=O)c3ccccc32)ccc1Cl` (centres undefined) [CHLORTHALIDONE], the IC50 result in assay [1], in assay [2] and in assay [3] was “Not Active” each time.
Take `O=C(O)CC(O)(CC(=O)O)C(=O)O` [CITRIC ACID]: the IC50 result in assay [1], in assay [2] and in assay [3] was “Not Active” throughout.
Turning to `CN1C[C@@H]2C[C@H]1CN2c1cc2c(cc1F)c(=O)c(C(=O)O)cn2C1CC1` [DANOFLOXACIN], the IC50 entry in assay [1], in assay [2] and in assay [3] was “Not Active” throughout.
Consider `COc1cccc2c1C(=O)c1c(O)c3c(c(O)c1C2=O)C[C@@](O)(C(C)=O)C[C@@H]3O[C@H]1C[C@H](N)[C@H](O)[C@H](C)O1` [DAUNORUBICIN], for which the IC50 entry in assay [1], in assay [2] and in assay [3] was “Not Active” in each case.
With `O=C(O)c1cc(-c2ccc(F)cc2F)ccc1O` [DIFLUNISAL], the IC50 result in assay [1], in assay [2] and in assay [3] was “Not Active” each time.
Regarding `C[S+](C)[O-]` [DIMETHYL SULFOXIDE], the IC50 result in assay [1], in assay [2] and in assay [3] was “Not Active” each time.
For the compound `CC1=NN(c2ccccc2)C(=O)C1` [EDARAVONE], the IC50 entry in assay [1], in assay [2] and in assay [3] was “Not Active” in each case.
For `C[C@H]1COc2c(N3CCN(C)CC3)c(F)cc3c(=O)c(C(=O)O)cn1c23.C[C@H]1COc2c(N3CCN(C)CC3)c(F)cc3c(=O)c(C(=O)O)cn1c23.O` [LEVOFLOXACIN], the IC50 result in assay [2] and in assay [3] was “Not Active” throughout.
